Literature values in patent publication US11819781B2, “Device for solid phase extraction and method for use thereof” (Waters Technologies Corporation, priority 2014, dated 2023).

Details: analyte characteristics; for Log P: octanol:water

pKa | Log P | SMILES
9.7 | 4.8 | CN(C)CCC=C1c2ccccc2CCc2ccccc21 [Amitriptyline]
– | 4.4 | CNCCCC1c2ccccc2C=Cc2ccccc21 [Protriptyline]
– | 1.1 | C[C@H]1C[C@H]2[C@@H]3CCC4=CC(=O)C=C[C@]4(C)[C@@]3(F)[C@@H](O)C[C@]2(C)[C@@]1(O)C(=O)CO [Betamethasone]
